The assay deals with T1, thrombin (Bos taurus, UniProt P00735).
T1 construct: purchased Sigma T-3399
Briefly: biological assay for thrombin inhibitory activity (fluorogenic substrate). Conditions: for inhibition at 50 µM: test probe concentration 50 μM; for inhibition at 100 µM: test probe concentration 100 μM. Format: biochemical. On the procedure:
The biological assay for thrombin inhibitory activity is detailed below. To Costar® 96-well black fluorescence plate wells is added 70 microliters of assay buffer, followed by 10 microliters of 1 millimolar substrate solution. Test probe (10 microliters in 30% DMSO) is then added to wells according to the desired concentrations for the assay. The mixture is incubated at 37° C. for 5 minutes, followed by addition of 10 microliters of thrombin (100 micrograms/mL in assay buffer), to make a final assay volume of 100 microliters. The plate is mixed gently and incubated 15 minutes at 37° C. Stop buffer (100 microliters) is added, and the plate is read by detecting fluorescence intensity (Excitation at 360 nm, Emission at 460 nm). Percent inhibition of test compound is calculated by comparison with control wells. “Assay buffer” is composed of 100 mM KH2PO4, 100 mM Na2HPO4, 1 mM EDTA, 0.01% BRIJ-35, and 1 mM dithiothreitol (added fresh on the day assay is preformed). “Stop buffer” is composed of 100 mM Na—O(O)CCH2Cl and 30 mM sodium acetate which is brought to pH 2.5 with glacial acetic acid. Thrombin was purchased from Sigma (cat #T-3399). Thrombin substrate III fluorogenic was purchased from ICN (cat #195915). Sodium acetate, dithiothreitol, and Brij-35 were purchased from Sigma. Sodium monochloroacetate was purchased from Lancaster 223-498-3. Glacial acetic acid was purchased from Alfa Aesar (cat # 33252). Thrombin was stored at −20° C. Thrombin substrate fluorogenic was stored at −20° C. (5 mM in DMSO).

Turning to `CCCCN(CCCC)CCCNC(=O)c1cc(Cl)ccc1NC(=O)c1n[nH]c2ccccc12` [Example B2], the inhibition (usually the drop in the measured response relative to a control, in per cent) at 50 µM was 10 to 39% and the inhibition at 100 µM is 40 to 74%.

`CC(NC(=O)C(NC(=O)c1n[nH]c2ccccc12)C1CCNCC1)c1ccccc1` (stereo not drawn) [Example B3] gave an inhibition at 50 µM of 10 to 39% and an inhibition at 100 µM of 40 to 74%.

Take `COc1ccc(CNC(=O)c2cc(Cl)ccc2NC(=O)c2n[nH]c3ccccc23)cc1OC` [Example B1]: the inhibition at 50 µM is 10 to 39% and the inhibition at 100 µM lay within 40 to 74%.
